One assay has as its system hypoxic cell growth. Description: High-throughput hypoxic cell growth assays. In kind it is cell-based. The text has this:
In some embodiments, the presently disclosed subject matter relates to the discovery that genetically or pharmacologically enhancing glycolytic metabolism is protective against hypoxia/ischemia. Particularly, in accordance with some embodiments of the presently disclosed subject matter, it has been uncovered that elevated expression of the enzyme 6-phosphofructo-2-kinase/fructose-2,6-bisphosphatase 3 (PFKFB3), a potent allosteric activator of glycolysis, prevents ischemic injury and improves cell survival, while small molecular inhibition of PFKFB3 severely exacerbates ischemic injury. Thus, in some embodiments, the genetic target is PFKFB3. […] The compounds include, for example, metform in, phenformin, biperiden hydrochloride, clemastine, meclizine, berberine chloride, vinpocetine, pimozide, and mefloquine.
Many Food and Drug Administration (FDA) approved drugs and other chemical compounds have off-target effects on cellular metabolism, including the ability to enhance glycolytic metabolism. Cardiomyoblast (H9c2; obtained from ATCC) cells were treated with a number of compounds (berberine, clofoctol, phenformin, metformin, pentamidine, clemastine, pimoxide, bisacodyl, meclizine, mefloquine, papaverine, flunarizine, biperiden, vinpocetine, and niclosamide) at a final concentration of 1 μM prior to experimental hypoxia for 72 hours. […] Human kidney fibroblast cells were also treated with the compound prior to experimental hypoxia. […] In addition, primary mouse cortical neurons were treated with the compounds prior to experimental ischemia.

Assay [1] deals with endothelial (HUVEC) cells. The assay can be described thus: AAV-mediated expression of PFKFB3 in endothelial cells. The assay is classed as cell-based, human. Particulars: HUVEC on Matrigel; PFKFB3 inhibited. The text has this: To begin examining the therapeutic potential of PFKFB3 in PAD, an AAV vector was generated to deliver PFKFB3 cloning the PFKFB3 coding sequence into an AAV2 ITR vector with expression driven by the ubiquitous cytomegalovirus promoter (CMV) promoter. AAV-PFKFB3 or control virus (AAV-DJ-GFP) was delivered to muscle (primary mouse myoblast) and endothelial (HUVEC) cells at a multiplicity of infection (MOI) of 10,000.

Where a name gives a salt, the structure may show the parent alone.

The record followed here is US20190351029A1, “MODULATION OF ISCHEMIC CELL BIOENERGETICS” (East Carolina University, priority 2017, published 2019).

Consider `OC(c1cc(C(F)(F)F)nc2c(C(F)(F)F)cccc12)C1CCCCN1` (stereo not drawn) [mefloquine], for which the “cell growth/survival in hypoxia” value in the assay on hypoxic cell growth is recorded as “improve cell growth/survival in hypoxia”.
Consider `O=C(C=Cc1ccc2ccccc2n1)c1ccncc1` [PFK15, 1-(4-pyridinyl)-3-(2-quinolinyl)-2-propen-1-one], for which the “effect on enhanced tube formation of AAV-DJ-PFKFB3 treated endothelial cells” value in assay [1] is “abolished”.
Take `CN(C)C(=N)N=C(N)N` [metform in, metformin]: the “cell growth/survival in hypoxia” value in the assay on hypoxic cell growth is “improve cell growth/survival in hypoxia”.
In the case of `OC(CCN1CCCCC1)(c1ccccc1)C1CC2C=CC1C2` (stereo not drawn) [biperiden hydrochloride], the “cell growth/survival in hypoxia” value in the assay on hypoxic cell growth is “improve cell growth/survival in hypoxia”.
Still for that read-out and setting: then `CCOC(=O)C1=C[C@]2(CC)CCCN3CCc4c(n1c1ccccc41)[C@@H]32` [vinpocetine], with “improve cell growth/survival in hypoxia”.
Same read-out and setting: then `COc1ccc2cc3[n+](cc2c1OC)CCc1cc2c(cc1-3)OCO2` [berberine chloride], with “improve cell growth/survival in hypoxia”.
The same measure, in the same setting: then `Cc1cccc(CN2CCN(C(c3ccccc3)c3ccc(Cl)cc3)CC2)c1` (stereo not drawn) [meclizine], with “improve cell growth/survival in hypoxia”.
`[H]/N=C(/N)N/C(=N/[H])NCCc1ccccc1` [phenformin]: the “cell growth/survival in hypoxia” value with hypoxic cell growth is on record as “improve cell growth/survival in hypoxia”.
On the same count and under the same terms, the value for `CN1CCC[C@@H]1CCO[C@](C)(c1ccccc1)c1ccc(Cl)cc1` [clemastine] was “improve cell growth/survival in hypoxia”.
